Converted amounts (≈) assume the structure as drawn.
Tests used:
[1] = Oral bioavailability in Sprague-Dawley rat at 24.4 mg/kg measured over 24 hrs by LC-MS analysis; assay type: ADME, organism-based; conditions: in vivo
[2] = Unbound AUC (0 to infinity) in Sprague-Dawley rat at 24.4 mg/kg, po measured over 24 hrs by LC-MS analysis; assay type: ADME, organism-based; conditions: in vivo
[3] = Unbound AUC (0 to infinity) in Swiss mouse at 20 mg/kg, po administered as single dose via gavage measured over 24 hrs by LC-MS analysis; assay type: ADME, organism-based; conditions: in vivo
[4] = Cmax in Swiss mouse at 20 mg/kg, po administered as single dose via gavage measured over 24 hrs by LC-MS analysis; assay type: ADME, organism-based; design: route oral, dose 20 mg/kg, time >24; conditions: in vivo
[5] = Protein binding in Sprague-Dawley rat plasma at 2 mg/kg, iv administered as infusion for 10 mins by LC-MS analysis; assay type: ADME, organism-based; conditions: read-out: PPB (converted)
[6] = Volume of distribution at steady state in Sprague-Dawley rat at 2 mg/kg, iv administered as infusion for 10 mins by LC-MS analysis; assay type: ADME, organism-based; conditions: in vivo
[7] = Protein binding in human plasma assessed as bound fraction by LC-MS analysis based ultracentrifugation assay; assay type: ADME, cell-free; conditions: read-out: PPB (converted)
[8] = Unbound Cmax in Swiss mouse at 20 mg/kg, po administered as single dose via gavage measured over 24 hrs by LC-MS analysis; assay type: ADME, organism-based; conditions: in vivo
[9] = Inhibition of N-terminal His6-tagged dog DHODH expressed in Escherichia coli BL21 using L-DHO as substrate and CoQ as co-substrate by DCIP dye based spectrophotometric assay; design: species or system Canis lupus familiaris
[10] = Unbound Cmax in Sprague-Dawley rat at 24.4 mg/kg, po measured over 24 hrs by LC-MS analysis; assay type: ADME, organism-based; conditions: in vivo
[11] = Inhibition of N-terminal His6-tagged Plasmodium falciparum DHODH expressed in Escherichia coli BL21 using L-DHO as substrate and CoQ as co-substrate by DCIP dye based spectrophotometric assay
[12] = Elimination half-life in Swiss mouse at 20 mg/kg, po administered as single dose via gavage measured over 24 hrs by LC-MS analysis; assay type: ADME, organism-based; conditions: in vivo, read-out: beta t1/2 (converted)
[13] = Kinetic solubility of compound in phosphate buffer at pH 6.5 measured after 30 mins by HPLC-UV based analysis; assay type: physicochemical; conditions: phosphate buffer, pH 6.5, read-out: Kinetic_solubility
[14] = Protein binding in rat plasma assessed as bound fraction by LC-MS analysis based ultracentrifugation assay; assay type: ADME, cell-free; conditions: read-out: PPB (converted)
[15] = Apparent half-life in Swiss mouse at 20 mg/kg, po administered as single dose via gavage measured over 24 hrs by LC-MS analysis; assay type: ADME, organism-based; conditions: in vivo
Cytochrome P450 3A4 = Cytochrome P450 3A4 (Homo sapiens, UniProt P08684); test: Inhibition of CYP3A4 in human liver microsomes using isoform-specific probe substrates in presence of NADPH-generating system by LC-MS analysis; assay type: ADME
Plasmodium falciparum = test: Antiplasmodial activity against Plasmodium falciparum 3D7 infected in RBC assessed as reduction in parasitemia incubated for 72 hrs by SYBR green dye-based assay; assay type: functional, organism-based; conditions: rbc
[16] = Intrinsic clearance in rat liver microsomes assessed per mg protein at 1 uM by LC-MS analysis; assay type: ADME, Microsome; conditions: microsomes, 1 µM
[17] = Solubility of compound in 0.1 N HCl measured after 5 to 6 hrs by HPLC-UV based analysis; assay type: physicochemical; conditions: buffer; time 5-6 hrs
[18] = Protein binding in Swiss mouse plasma at 20 mg/kg, po administered as single dose via gavage measured over 24 hrs by LC-MS analysis; assay type: ADME, organism-based; conditions: read-out: PPB (converted)
[19] = Unbound clearance in Sprague-Dawley rat at 2 mg/kg, iv administered as infusion for 10 mins by LC-MS analysis; assay type: ADME, organism-based; conditions: in vivo
[20] = AUC (0 to infinity) in Sprague-Dawley rat at 24.4 mg/kg, po measured over 24 hrs by LC-MS analysis; assay type: ADME, organism-based; design: route oral, dose 24.4 mg/kg, time >24; conditions: in vivo
[21] = Solubility of compound in FeSSIF at pH 5.8 measured after 5 to 6 hrs by HPLC-UV based analysis; assay type: physicochemical; conditions: simulated gi fluid, time 5-6 hrs
[22] = AUC (0 to infinity) in Swiss mouse at 20 mg/kg, po administered as single dose via gavage measured over 24 hrs by LC-MS analysis; assay type: ADME, organism-based; design: route oral, dose 20 mg/kg, time >24; conditions: in vivo
[23] = AUC (0 to infinity) in Sprague-Dawley rat at 2 mg/kg, iv administered as infusion for 10 mins by LC-MS analysis; assay type: ADME, organism-based; design: route intravenous, dose 2 mg/kg, time 10 min; conditions: in vivo
[24] = Apparent half-life in Sprague-Dawley rat at 2 mg/kg, iv administered as infusion for 10 mins by LC-MS analysis; assay type: ADME, organism-based; conditions: in vivo, read-out: t1/2(app) (converted)
[25] = Unbound volume of distribution at steady state in Sprague-Dawley rat at 2 mg/kg, iv administered as infusion for 10 mins by LC-MS analysis; assay type: ADME, organism-based; conditions: in vivo
[26] = Cmax in Sprague-Dawley rat at 24.4 mg/kg, po measured over 24 hrs by LC-MS analysis; assay type: ADME, organism-based; design: route oral, dose 24.4 mg/kg, time >24; conditions: in vivo
[27] = Solubility of compound in FaSSIF at pH 6.5 measured after 5 to 6 hrs by HPLC-UV based analysis
[28] = Inhibition of N-terminal His6-tagged Plasmodium vivax DHODH expressed in Escherichia coli BL21 using L-DHO as substrate and CoQ as co-substrate by DCIP dye based spectrophotometric assay
[29] = Lipophilicity, logD of the compound at pH 7.4; assay type: physicochemical; conditions: buffer
[30] = Unbound AUC (0 to infinity) in Sprague-Dawley rat at 2 mg/kg, iv by LC-MS analysis; assay type: ADME, organism-based; conditions: in vivo
[31] = Protein binding in mouse plasma assessed as bound fraction by LC-MS analysis based ultracentrifugation assay; assay type: ADME, cell-free; conditions: read-out: PPB (converted)
[32] = Tmax in Swiss mouse at 20 mg/kg, po administered as single dose via gavage measured over 24 hrs by LC-MS analysis; assay type: ADME, organism-based; conditions: in vivo
in vivo [33] = conditions: Sprague-Dawley, rat, po, 24.4 mg/kg
[34] = Intrinsic clearance in mouse liver microsomes at 1 uM by LC-MS analysis; assay type: ADME, Microsome
[35] = AUC (0 to infinity) in Sprague-Dawley rat at 18.3 mg/kg, po measured over 24 hrs by LC-MS analysis; assay type: ADME, organism-based; design: route oral, dose 18.3 mg/kg, time >24; conditions: in vivo
[36] = Cmax in Sprague-Dawley rat at 18.3 mg/kg, po measured over 24 hrs by LC-MS analysis; assay type: ADME, organism-based; design: route oral, dose 18.3 mg/kg, time >24; conditions: in vivo
[37] = Inhibition of yeast DHODH expressed in Plasmodium falciparum; design: species or system Saccharomyces cerevisiae
[38] = Unbound volume of distribution at steady state in Sprague-Dawley rat at […], iv administered as infusion for 10 mins by LC-MS analysis; assay type: ADME, organism-based; conditions: in vivo, dose 1.1 mg/kg
[39] = Unbound AUC (0 to infinity) in Sprague-Dawley rat at […], iv by LC-MS analysis; assay type: ADME, organism-based; conditions: in vivo, dose 1.1 mg/kg
[40] = Unbound Cmax in Sprague-Dawley rat at 18.3 mg/kg, po measured over 24 hrs by LC-MS analysis; assay type: ADME, organism-based; conditions: in vivo
[41] = Volume of distribution at steady state in Sprague-Dawley rat at […], iv administered as infusion for 10 mins by LC-MS analysis; assay type: ADME, organism-based; conditions: in vivo, dose 1.1 mg/kg
[42] = Unbound clearance in Sprague-Dawley rat at […], iv administered as infusion for 10 mins by LC-MS analysis; assay type: ADME, organism-based; conditions: in vivo, dose 1.1 mg/kg
[43] = Solubility of compound in FeSSIF at pH 5 measured after 5 to 6 hrs by HPLC-UV based analysis; assay type: physicochemical; conditions: simulated gi fluid, time 5-6 hrs
[44] = Apparent half-life in Sprague-Dawley rat at […], iv administered as infusion for 10 mins by LC-MS analysis; assay type: ADME, organism-based; conditions: in vivo, dose 1.1 mg/kg, read-out: t1/2(app) (converted)
[45] = AUC (0 to infinity) in Sprague-Dawley rat at […], iv administered as infusion for 10 mins by LC-MS analysis; assay type: ADME, organism-based; design: route intravenous, dose 1.1 mg/kg, time 10 min; conditions: in vivo
[46] = Unbound AUC (0 to infinity) in Sprague-Dawley rat at 18.3 mg/kg, po measured over 24 hrs by LC-MS analysis; assay type: ADME, organism-based; conditions: in vivo
in vivo [47] = conditions: Sprague-Dawley, rat, po, 18.3 mg/kg
[48] = Protein binding in Sprague-Dawley rat plasma at […], iv administered as infusion for 10 mins by LC-MS analysis; assay type: ADME, organism-based; conditions: dose 1.1 mg/kg, read-out: PPB (converted)
[49] = Oral bioavailability in Sprague-Dawley rat at 18.3 mg/kg measured over 24 hrs by LC-MS analysis; assay type: ADME, organism-based; conditions: in vivo

Chain of Cytochrome P450 3A4 (P08684 whole entry, canonical isoform): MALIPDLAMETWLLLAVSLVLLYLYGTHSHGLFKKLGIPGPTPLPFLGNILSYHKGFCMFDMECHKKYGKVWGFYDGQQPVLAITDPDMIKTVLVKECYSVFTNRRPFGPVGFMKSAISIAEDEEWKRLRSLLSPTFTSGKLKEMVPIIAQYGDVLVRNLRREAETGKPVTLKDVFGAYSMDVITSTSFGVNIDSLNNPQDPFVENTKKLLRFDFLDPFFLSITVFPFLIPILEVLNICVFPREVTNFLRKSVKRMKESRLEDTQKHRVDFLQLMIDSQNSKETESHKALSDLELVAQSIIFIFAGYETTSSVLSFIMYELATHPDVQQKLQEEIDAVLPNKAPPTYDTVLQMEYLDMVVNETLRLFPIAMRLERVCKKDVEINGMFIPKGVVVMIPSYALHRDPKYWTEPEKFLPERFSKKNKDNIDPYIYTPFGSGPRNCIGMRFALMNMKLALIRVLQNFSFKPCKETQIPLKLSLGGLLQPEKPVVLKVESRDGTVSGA

| SMILES | fAUC [3] | Cmax [4] | fraction unbound [7] | fCmax [8] | IC50 [9] | IC50 [11] | half-life [12] | solubility kinetic at 0.5 h [13] | fraction unbound [14] | t1/2(app) [15] | EC50 (Plasmodium falciparum) | Intrinsic clearance in rat liver microsomes (uL/min/mg protein) [16] | solubility [17] | fraction unbound at 24 h [18] | AUC [22] | solubility [27] | IC50 [28] | logD [29] | Tmax [32] | intrinsic clearance [34] | also measured |
| --- | --- | --- | --- | --- | --- | --- | --- | --- | --- | --- | --- | --- | --- | --- | --- | --- | --- | --- | --- | --- | --- |
| Cc1cc(NC2CCc3cc(Br)ccc3C2)n2nc(C(C)(F)F)nc2n1 (stereo in doubt) | 0.41 µM·h | 8.6 µM | 0.01 | 0.07 µM | > 100 µM | 4.6 nM | 120 min | 3.1 µg/mL (≈ 7.34 µM) | 0.003 | 2.1 h | 2.6 nM | 11 µL/min | 189 µg/mL (≈ 448 µM) | 0.008 | 51 µM·h | 13 µg/mL (≈ 30.8 µM) | 24 nM | 4 | 1 h | 26 µL/min | bioavailability [1]: 86%; fAUC [2]: 0.95 µM·h; fraction unbound at 10 min [5]: 0.003; Vdss [6]: 1.1 L/kg; fCmax [10]: 0.11 µM; IC50 (Cytochrome P450 3A4): > 20 µM; CL free [19]: 933 mL/min/kg; AUC(0-inf) [20]: 318 µM·h; solubility [21]: 211 µg/mL (≈ 500 µM); AUC(0-inf) [23]: 30 µM·h; half-life [24]: 372 min; fVdss [25]: 367 L/kg; Cmax [26]: 37 µM; fAUC [30]: 0.09 µM·h; fraction unbound [31]: 0.008; Tmax at 24 h (in vivo [33]): 2.5 h |
| Cc1cc(NC2CCc3ccc(Br)cc3C2)n2nc(C(C)(F)F)nc2n1 (stereo in doubt) | 0.47 µM·h | 4.5 µM | 0.037 | 0.13 µM | > 100 µM | 4.6 nM | 120 min | 1.6 µg/mL (≈ 3.79 µM) | 0.028 | 2.1 h | 0.39 nM | 39 µL/min | 52 µg/mL (≈ 123 µM) | 0.028 | 16.7 µM·h | 8.3 µg/mL (≈ 19.7 µM) | 12 nM | 4 | 1 h | 32 µL/min | AUC(0-inf) [35]: 28.1 µM·h; Cmax [36]: 2700 nM; EC50 [37]: 7.4 µM; fVdss [38]: 311 L/kg; fAUC [39]: 0.05 µM·h; fCmax [40]: 0.07 µM; Vdss [41]: 8.7 L/kg; CL free [42]: 800 mL/min/kg; solubility [43]: 39 µg/mL (≈ 92.4 µM); half-life at 10 min [44]: 366 min; AUC(0-inf) at 10 min [45]: 2 µM·h; fAUC [46]: 0.79 µM·h; Tmax at 24 h (in vivo [47]): 3.3 h; fraction unbound at 10 min [48]: 0.028; bioavailability [49]: 86% |

From ChEMBL document CHEMBL4706474, “Tetrahydro-2-naphthyl and 2-Indanyl Triazolopyrimidines Targeting Plasmodium falciparum Dihydroorotate Dehydrogenase Display Potent and Selective Antimalarial Activity” (J Med Chem, 2016)
